Data taken from the supplement of paper PMC8149375.

Tests used:
Conditions in all cases: treatment: drug alone; 5 days
[1] = tested on: 769-P; assay: minimum viability across doses, drug alone, relative to DMSO (fraction); higher = less growth inhibition
Description: (§1)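 Primary HTS: 8 RCC cell lines treated with 8 doses (up to 10 uM) of each library drug alone for 5 days; viability read by CellTiter-Glo and normalised to DMSO. GI50 was fitted with XLfit (4-parameter), AUC is the area under the dose-response curve, and minimum viability is the lowest fraction of DMSO viability across doses.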

[2] = tested on: ACHN; assay: as above
Description: as §1

[3] = tested on: A498; assay: as above
Description: as §1

[4] = tested on: TK-10; assay: as above
Description: as §1

[5] = tested on: SN12C; assay: as above
Description: as §1

[6] = tested on: UO-31; assay: as above
Description: as §1

[7] = tested on: 786-O; assay: as above
Description: as §1

[8] = tested on: CAKI-1; assay: as above
Description: as §1

[9] = tested on: 769-P; assay: GI50, drug alone; higher = less potent
Description: as §1

[10] = tested on: ACHN; assay: GI50, drug alone; higher = less potent
Description: as §1

[11] = tested on: A498; assay: GI50, drug alone; higher = less potent
Description: as §1

[12] = tested on: TK-10; assay: GI50, drug alone; higher = less potent
Description: as §1

[13] = tested on: SN12C; assay: GI50, drug alone; higher = less potent
Description: as §1

[14] = tested on: UO-31; assay: GI50, drug alone; higher = less potent
Description: as §1

[15] = tested on: 786-O; assay: GI50, drug alone; higher = less potent
Description: as §1

[16] = tested on: CAKI-1; assay: GI50, drug alone; higher = less potent
Description: as §1

[17] = tested on: 769-P; assay: AUC of dose-response viability curve, drug alone (arbitrary (AUC of normalised viability)); higher = less growth inhibition
Description: as §1

[18] = tested on: ACHN; assay: as above
Description: as §1

[19] = tested on: A498; assay: as above
Description: as §1

[20] = tested on: TK-10; assay: as above
Description: as §1

[21] = tested on: SN12C; assay: as above
Description: as §1

[22] = tested on: UO-31; assay: as above
Description: as §1

[23] = tested on: 786-O; assay: as above
Description: as §1

[24] = tested on: CAKI-1; assay: as above
Description: as §1

SMILES | GI50, drug alone [10] [µM] | GI50, drug alone [15] [µM] | minimum viability across doses [1] | minimum viability across doses [2] | minimum viability across doses [3] | minimum viability across doses [4] | minimum viability across doses [5] | minimum viability across doses [6] | minimum viability across doses [7] | minimum viability across doses [8] | GI50, drug alone [9] [µM] | GI50, drug alone [11] [µM] | GI50, drug alone [12] [µM] | GI50, drug alone [13] [µM] | GI50, drug alone [14] [µM] | GI50, drug alone [16] [µM] | AUC of dose-response viability curve [17] | AUC of dose-response viability curve [18] | AUC of dose-response viability curve [19] | AUC of dose-response viability curve [20] | AUC of dose-response viability curve [21] | AUC of dose-response viability curve [22] | AUC of dose-response viability curve [23] | AUC of dose-response viability curve [24]
O=C1C(=O)N(Cc2ccc(Cl)c(Cl)c2)c2ccccc21 [Apoptosis Activator 2] | 6.95 | > 10 | 0.654 | 0.339 | 0.506 | 0.439 | 0.193 | 0.818 | 0.00355 | 0.342 | > 10 | > 10 | 8.15 | 4.98 | > 10 | 7.68 | 3.51 | 2.87 | 4.06 | 2.82 | 2.93 | 4.31 | 1.07 | 3.53
CCN1CCN(C(=O)Cc2ccc(Nc3ncc(F)c(Nc4ccc(C(=O)Nc5ccccc5Cl)cc4)n3)cc2)CC1 [Aurora A Inhibitor I] | 0.557 | 0.234 | 0.0238 | 0.062 | 0.871 | 0.481 | 0.465 | 0.327 | 0.0582 | 0.00638 | 2.03 | > 10 | 4.41 | 5.34 | 9.23 | 0.98 | 2.75 | 2.17 | 4.05 | 2.7 | 2.95 | 3.82 | 1.75 | 2.49
CNC(=O)c1ccccc1Sc1ccc2c(/C=C/c3ccccn3)n[nH]c2c1 [Axitinib] | 4.7 | > 10 | 0.436 | 0.287 | 0.779 | 0.748 | 0.375 | 0.672 | 0.661 | 0.367 | 6.97 | > 10 | > 10 | 5.6 | > 10 | 2.87 | 3.08 | 3.13 | 4.06 | 3.07 | 3.06 | 4.27 | 3.02 | 2.86
Cn1c(=O)n(-c2ccc(C(C)(C)C#N)cc2)c2c3cc(-c4cnc5ccccc5c4)ccc3ncc21 [BEZ235 (NVP-BEZ235)] | 0.223 | 0.15 | 0.165 | 0.0714 | 0.0718 | 0.157 | 0.189 | 0.00561 | 0.139 | 0.0875 | 0.301 | 0.303 | 0.489 | 0.297 | 0.152 | 0.294 | 2.02 | 1.86 | 2.03 | 2.11 | 1.96 | 1.69 | 1.74 | 1.99
CCN1CCN(c2ccc(Nc3cc(N(C)C(=O)Nc4c(Cl)c(OC)cc(OC)c4Cl)ncn3)cc2)CC1 [BGJ398 (NVP-BGJ398)] | 0.747 | 2.25 | 0.631 | 0.111 | 0.92 | 0.327 | 0.385 | 0.401 | 0.218 | 0.133 | > 10 | > 10 | 3.23 | 6.98 | 7.58 | 0.519 | 3.22 | 2.28 | 3.84 | 2.68 | 2.91 | 2.98 | 2.7 | 2.1
CC[C@@H]1C(=O)N(C)c2cnc(Nc3ccc(C(=O)N[C@H]4CC[C@H](N5CCN(CC6CC6)CC5)CC4)cc3OC)nc2N1C(C)C [BI6727 (Volasertib)] | 0.13 | 0.0123 | 0.0308 | 0.0122 | 0.0429 | 0.0289 | 0.0643 | 0.012 | 0.00304 | 0.0881 | 0.126 | 2.03 | 0.293 | 0.123 | 0.0581 | 0.157 | 1.66 | 1.87 | 2.78 | 1.93 | 1.71 | 2.07 | 0.673 | 2.01
CC[C@@H]1C(=O)N(C)c2cnc(Nc3ccc(C(=O)NC4CCN(C)CC4)cc3OC)nc2N1C1CCCC1 [BI 2536] | 0.0499 | 0.0101 | 0.049 | 0.121 | 0.0641 | 0.0909 | 0.0427 | 0.0104 | 0.0067 | 0.121 | 0.12 | 0.458 | 0.317 | 0.0549 | 0.0839 | 0.0936 | 1.58 | 1.37 | 1.97 | 1.91 | 1.37 | 1.61 | 0.585 | 1.78
COC(=O)c1ccc2c(c1)NC(=O)/C2=C(\Nc1ccc(N(C)C(=O)CN2CCN(C)CC2)cc1)c1ccccc1 [BIBF1120 (Vargatef)] | 2.07 | > 10 | 0.917 | 0.255 | 0.892 | 0.61 | 0.393 | 0.439 | 0.782 | 0.251 | > 10 | > 10 | > 10 | > 10 | 7.36 | 2.13 | 3.42 | 2.77 | 3.91 | 3.09 | 2.58 | 4.65 | 3.94 | 2.81
Cc1ccc(-n2nc(C(C)(C)C)cc2NC(=O)Nc2ccc(OCCN3CCOCC3)c3ccccc23)cc1 [BIRB 796 (Doramapimod)] | > 10 | > 10 | 0.91 | 0.709 | 0.879 | 0.712 | 0.796 | 0.787 | 0.748 | 0.858 | > 10 | > 10 | > 10 | > 10 | > 10 | > 10 | 3.52 | 2.88 | 4.02 | 3.02 | 3.36 | 3.74 | 3.46 | 3.46

More lines, main results first:

GI50, drug alone [10] [µM] | GI50, drug alone [15] [µM] | SMILES | minimum viability across doses [1] | minimum viability across doses [2] | minimum viability across doses [3] | minimum viability across doses [4] | minimum viability across doses [5] | minimum viability across doses [6] | minimum viability across doses [7] | minimum viability across doses [8] | GI50, drug alone [9] [µM] | GI50, drug alone [11] [µM] | GI50, drug alone [12] [µM] | GI50, drug alone [13] [µM] | GI50, drug alone [14] [µM] | GI50, drug alone [16] [µM] | AUC of dose-response viability curve [17] | AUC of dose-response viability curve [18] | AUC of dose-response viability curve [19] | AUC of dose-response viability curve [20] | AUC of dose-response viability curve [21] | AUC of dose-response viability curve [22] | AUC of dose-response viability curve [23] | AUC of dose-response viability curve [24]
0.887 | 0.179 | Nc1cc(C(F)(F)F)c(-c2cc(N3CCOCC3)nc(N3CCOCC3)n2)cn1 [BKM120 (NVP-BKM120)] | 0.0668 | 0.0858 | 0.134 | 0.0981 | 0.0728 | 0.0226 | 0.00247 | 0.0499 | 1.57 | 1.93 | 0.641 | 1.67 | 1.45 | 0.608 | 2.57 | 2.31 | 2.89 | 2.2 | 2.23 | 2.65 | 1.56 | 2.31
> 10 | 9.75 | CC(C)c1cnn2c(NCc3ccccc3)cc(NCCCCCCN)nc12.Cl [BS-181 HCl] | 0.902 | 0.54 | 1.1 | 0.696 | 0.842 | 1.15 | 0.424 | 0.753 | > 10 | > 10 | > 10 | > 10 | > 10 | > 10 | 3.58 | 3.3 | 4.29 | 2.97 | 3.22 | 5.07 | 3.43 | 2.84
2.94 | 0.0999 | O=C(NCCCNc1nc(Nc2cccc(NC(=O)N3CCCC3)c2)ncc1I)c1cccs1 [BX-795] | 0.149 | 0.217 | 0.917 | 0.218 | 0.458 | 0.0155 | 0.00247 | 0.17 | 5.63 | > 10 | 3.93 | 7.51 | 5.04 | 2.67 | 3.03 | 2.83 | 4.14 | 2.59 | 2.8 | 4.13 | 1.64 | 2.66
4.2 | 2.04 | O=C(Nc1cccc(Nc2ncc(Br)c(NCCc3cnc[nH]3)n2)c1)N1CCCC1 [BX-912] | 0.587 | 0.251 | 0.742 | 0.292 | 0.266 | 0.961 | 0.0508 | 0.139 | > 10 | > 10 | 5.33 | 5.44 | > 10 | 2.07 | 3.15 | 3.08 | 4.04 | 2.81 | 2.94 | 3.91 | 2.16 | 2.59
8.55 | 1.65 | Cc1nc(NC(=O)N2CCC[C@H]2C(N)=O)sc1-c1ccnc(C(C)(C)C(F)(F)F)c1 [BYL719] | 0.762 | 0.396 | 0.982 | 0.404 | 0.638 | 0.927 | 0.155 | 0.502 | > 10 | > 10 | 4.8 | > 10 | > 10 | > 10 | 3.47 | 2.83 | 4.11 | 2.54 | 2.83 | 3.94 | 1.81 | 3.13
> 10 | 0.194 | CCN(CCO)CCCOc1ccc2c(Nc3cc(CC(=O)Nc4cccc(F)c4)n[nH]3)ncnc2c1 [Barasertib (AZD1152-HQPA)] | 0.408 | 0.583 | 1.04 | 0.703 | 0.74 | 0.767 | 0.0818 | 0.449 | 4.36 | > 10 | > 10 | > 10 | > 10 | 2.08 | 2.81 | 2.71 | 4.38 | 2.94 | 3.06 | 3.35 | 1.76 | 2.49
0.429 | 2.51 | COc1cc(Nc2c(C#N)cnc3cc(OCCCN4CCN(C)CC4)c(OC)cc23)c(Cl)cc1Cl [Bosutinib (SKI-606)] | 0.111 | 0.0885 | 0.233 | 0.0431 | 0.126 | 0.00817 | 0.0159 | 0.0478 | 1.65 | 5.05 | 1.21 | 1.14 | > 10 | 0.849 | 2.68 | 2.16 | 3.08 | 2.61 | 2.34 | 2.35 | 2.94 | 2.38
